Read-outs that look alike come from different tables or passages of the source.
Target: T1, human SARM1(50-724) (Homo sapiens, UniProt Q6SZW1)
T1 construct: 40 nM human SARM1(50-724)
T1 sequence (Q6SZW1 50-724): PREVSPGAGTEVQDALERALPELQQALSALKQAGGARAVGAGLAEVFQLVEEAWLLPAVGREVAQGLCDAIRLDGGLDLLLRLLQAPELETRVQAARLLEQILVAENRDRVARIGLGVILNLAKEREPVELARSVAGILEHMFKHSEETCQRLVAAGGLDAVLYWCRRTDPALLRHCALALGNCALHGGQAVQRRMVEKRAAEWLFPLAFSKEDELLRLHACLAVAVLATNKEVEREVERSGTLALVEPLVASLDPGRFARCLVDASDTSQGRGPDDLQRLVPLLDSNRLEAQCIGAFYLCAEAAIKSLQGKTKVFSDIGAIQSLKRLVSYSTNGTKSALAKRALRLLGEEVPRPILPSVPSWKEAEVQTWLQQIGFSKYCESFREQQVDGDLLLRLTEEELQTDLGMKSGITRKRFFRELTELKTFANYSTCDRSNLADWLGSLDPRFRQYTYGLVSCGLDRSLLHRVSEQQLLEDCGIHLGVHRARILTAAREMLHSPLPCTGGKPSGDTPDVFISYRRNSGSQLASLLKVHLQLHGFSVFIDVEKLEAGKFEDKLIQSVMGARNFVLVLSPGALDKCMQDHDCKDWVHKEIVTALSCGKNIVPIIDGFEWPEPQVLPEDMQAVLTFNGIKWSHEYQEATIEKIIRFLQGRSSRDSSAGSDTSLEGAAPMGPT
Test: SARM1 biological assay: HPLC measurement of NAD and NAM peak areas
Format: biochemical
Protocol: Each reaction was run at a volume of 20 μL containing 50 μM compound (dissolved in DMSO; final concentration of DMSO is 1% v/v), 40 nM human SARM1(50-724), 0.3 mM NMN, 20 μM NAD, 1 mM TCEP, 25 mM HEPES pH 7.4, 10 mM KCl and 10 mM MgCl2. The reaction was incubated at room temperature for 60 minutes and quenched with 20 μL of 0.4% formic acid. The samples were run on Agilent HPLC 1260 Infinity II with Synergi 2.5 μM Fusion-RP 100 Å (100×3.0 mm) LC column from Phenomenex. Total run time for each sample was 4 minutes. The run was isocratic with 1.5% methanol in 40 mM ammonium acetate pH 6.0. Samples were run at a flow rate of 0.8 mL/min at 55° C. Peak areas of NAD and NAM were determined using OpenLAB CDS (Chem Station edition) software. For dose-response, the compound was diluted serially 1:3 in DMSO and added to the reaction starting at a final compound concentration of 100 μM in 1% DMSO.

Row | Compound | IC50 | IC50 (read-out: Average IC50, 40 nM human SARM1(50-724), 0.3 mM NMN, 20 μM NAD, 60 min at room temperature, dose-response 1:3 serial dilution from 100 μM)
1 | FC1(F)CC[C@@H](c2nc(Cc3ccncc3)c[nH]2)C1 (single isomer, unassigned) [Example 11B] | 1000 to 10000 nM | –
2 | FC(F)(F)C1CC1c1nc(Cc2ccncc2)c[nH]1 (stereo not shown) [Example 26, 4-((2-(2-(Trifluoromethyl)cyclopropyl)-1H-imidazol-4-yl)methyl)pyridine] | 1000 to 10000 nM | –
3 | Fc1cnccc1Cc1coc(C2CCC(F)(F)CC2)n1 [Example 17B, 2-(4,4-Difluorocyclohexyl)-4-((3-fluoropyridin-4-yl)methyl)oxazole] | 10000 to 100000 nM | –
4 | FC(F)(F)O[C@H]1C[C@H](c2nc(Cc3ccncc3)c[nH]2)C1 [Example 37B, (trans)-4-((2-(3-(Trifluoromethoxy)cyclobutyl)-1H-imidazole-4-yl)methyl)pyridine] | 1000 to 10000 nM | –
5 | ClC1(Cl)CC1c1nc(Cc2ccncc2)c[nH]1 (stereo not shown) [Example 6, 4-((2-(2,2-Dichlorocyclopropyl)-1H-imidazol-4-yl)methyl)pyridine] | < 1000 nM | –
6 | FC(F)(F)Sc1ncc(Cc2ccncc2)[nH]1 [Example 28, 4-((2-((Trifluoromethyl)thio)-1H-imidazol-5-yl)methyl)pyridine] | < 1000 nM | –
7 | FC1(F)CC1c1nc(Cc2ccncc2)c[nH]1 (single isomer, unassigned) [Example 5B] | – | < 1000 nM
8 | FC1(F)C[C@@H]1Cc1nc(Cc2ccncc2)c[nH]1 (single isomer, unassigned) [Example 21A] | < 1000 nM | –
9 | FC1(F)CC[C@H](c2nc(Cc3ccncc3)c[nH]2)C1 (single isomer, unassigned) [Example 11A] | < 1000 nM | –
10 | F[C@H]1C[C@@H](c2nc(Cc3ccncc3)c[nH]2)C1 [Example 29, (cis)-4-((2-(3-Fluorocyclobutyl)-1H-imidazol-4-yl)methyl)pyridine] | < 1000 nM | –
